Experimental data as given in patent publication US8445510B2, “Fused bicyclic kinase inhibitors” (OSI Pharmaceuticals, LLC, priority 2011, dated 2013).
pIC50: −log10 of the molar value.

Assays:
Aurora B = molecular target: T1, Aurora B (Homo sapiens, UniProt Q96GD4); test: Aurora B cell mechanistic assay (HT-29), phospho-Histone H3 (Ser10) ELISA; type: cell-based; conditions: HT-29 cell line; inhibition of phospho-Histone H3 (Ser10); at least duplicate experiments (italicized if single experiment); read-out: Aurora B mech IC50
T1 construct: HT-29 cells grown in complete growth media
T1 sequence (Q96GD4 whole entry): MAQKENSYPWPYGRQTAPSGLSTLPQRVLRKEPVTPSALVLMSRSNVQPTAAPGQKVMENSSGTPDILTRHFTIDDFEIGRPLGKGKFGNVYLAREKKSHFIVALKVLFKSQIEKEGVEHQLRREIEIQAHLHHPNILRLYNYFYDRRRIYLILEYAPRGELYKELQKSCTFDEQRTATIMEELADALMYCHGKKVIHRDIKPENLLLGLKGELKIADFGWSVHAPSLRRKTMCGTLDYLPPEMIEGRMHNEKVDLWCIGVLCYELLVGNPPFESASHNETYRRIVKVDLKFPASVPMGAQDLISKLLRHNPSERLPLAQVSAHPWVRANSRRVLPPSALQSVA
How it was run: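 HT-29 cells treated 1 h at 37 °C with serially diluted compound, then 100 nM Calyculin A added for 30 min. Lysates assayed by phospho-Histone H3 (Ser10) ELISA at 450 nm; normalized to DMSO (100%) and a reference Aurora B inhibitor (full inhibition); IC50 by four-parameter fit.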

MKN45 cells = test: MKN45 cell proliferation assay (CellTiter-Glo); type: cell-based; conditions: Homo sapiens, MKN-45, 72 h; MKN45 cell line; 3 days incubation; at least duplicate experiments; read-out: Prolif. IC50

| Structure (SMILES) | pIC50 (Aurora B) | pIC50 (MKN45 cells) |
| --- | --- | --- |
| COc1ccc(F)c(Cl)c1[C@@H](C)c1c[nH]c2ncc(-c3cnn([C@@H]4C[C@@H](O)[C@@H](O)C4)c3C)cc12 [Example 31, (1R,2S,4S)-4-(4-{3-[(1S)-1-(2-Chloro-3-fluoro-6-methoxyphenyl)ethyl]-1H-pyrrolo[2,3-b]pyridin-5-yl}-5-methyl-1H-pyrazol-1-yl)cyclopentane-1,2-diol] | < 6.00 | ≥ 7.30 |
| COc1cc(OC)c(Cl)c([C@@H](C)c2c[nH]c3ncc(-c4cnn([C@H]5CC[C@H](O)CC5)c4C)cc23)c1Cl [Example 106, trans-4-(4-{3-[(1S)-1-(2,6-Dichloro-3,5-dimethoxyphenyl)ethyl]-1H-pyrrolo[2,3-b]pyridin-5-yl}-5-methyl-1H-pyrazol-1-yl)cyclohexanol] | < 6.00 | ≥ 7.30 |
| COc1ccc(F)c(Cl)c1[C@@H](C)c1c[nH]c2ncc(-c3cn(C[C@@H](O)CO)nc3C(F)(F)F)cc12 [Example 34, (2R)-3-[4-{3-[(1S)-1-(2-Chloro-3-fluoro-6-methoxyphenyl)ethyl]-1H-pyrrolo[2,3-b]pyridin-5-yl}-3-(trifluoromethyl)-1H-pyrazol-1-yl]propane-1,2-diol] | < 6.00 | 6.70 to 7.30 |
| COc1ccc(F)c(Cl)c1[C@@H](C)c1c[nH]c2ncc(-c3c(C)nn(C)c3C)cc12 [Example 4, 3-[(1S)-1-(2-Chloro-3-fluoro-6-methoxyphenyl)ethyl]-5-(1,3,5-trimethyl-1H-pyrazol-4-yl)-1H-pyrrolo[2,3-b]pyridine] | < 6.00 | 6.00 to 6.70 |
| COc1ccc(F)c(Cl)c1[C@@H](C)c1c[nH]c2ncc(-c3cncn3C)cc12 [Example 64, 3-[(1S)-1-(2-Chloro-3-fluoro-6-methoxyphenyl)ethyl]-5-(1-methyl-1H-imidazol-5-yl)-1H-pyrrolo[2,3-b]pyridine] | < 6.00 | 6.70 to 7.30 |
| COc1ccc(F)c(Cl)c1[C@@H](C)c1c[nH]c2ncc(-c3cnn([C@H]4CC[C@@H](O)CC4)c3C)cc12 [Example 52, cis-4-(4-{3-[(1S)-1-(2-Chloro-3-fluoro-6-methoxyphenyl)ethyl]-1H-pyrrolo[2,3-b]pyridin-5-yl}-5-methyl-1H-pyrazol-1-yl)cyclohexanol] | < 6.00 | ≥ 7.30 |

The remaining lines, values ahead:

| pIC50 (Aurora B) | pIC50 (MKN45 cells) | Structure (SMILES) |
| --- | --- | --- |
| < 6.00 | ≥ 7.30 | CCc1nn([C@H]2CC[C@H](O)CC2)cc1-c1cnc2[nH]cc([C@H](C)c3c(OC)ccc(F)c3Cl)c2c1 [Example 47, trans-4-(4-{3-[(1S)-1-(2-Chloro-3-fluoro-6-methoxyphenyl)ethyl]-1H-pyrrolo[2,3-b]pyridin-5-yl}-3-ethyl-1H-pyrazol-1-yl)cyclohexanol] |
| 6.00 to 6.70 | 6.70 to 7.30 | CCc1c(-c2cnc3[nH]cc([C@H](C)c4c(OC(F)F)ccc(F)c4Cl)c3c2)cnn1CC(C)(C)O [Example 72, 1-[4-(3-{(1S)-1-[2-Chloro-6-(difluoromethoxy)-3-fluorophenyl]ethyl}-1H-pyrrolo[2,3-b]pyridin-5-yl)-5-ethyl-1H-pyrazol-1-yl]-2-methylpropan-2-ol] |
| < 6.00 | 6.70 to 7.30 | COc1ccc(F)c(Cl)c1[C@@H](C)c1c[nH]c2ncc(-c3cn(C)nc3C#N)cc12 [Example 46, 4-{3-[(1S)-1-(2-Chloro-3-fluoro-6-methoxyphenyl)ethyl]-1H-pyrrolo[2,3-b]pyridin-5-yl}-1-methyl-1H-pyrazole-3-carbonitrile] |
| 6.00 to 6.70 | ≥ 7.30 | COc1ccc(F)c(Cl)c1[C@@H](C)c1c[nH]c2ncc(-c3cn(CC(C)(C)O)nc3C)cc12 [Example 7, 1-(4-{3-[(1S)-1-(2-Chloro-3-fluoro-6-methoxyphenyl)ethyl]-1H-pyrrolo[2,3-b]pyridin-5-yl}-3-methyl-1H-pyrazol-1-yl)-2-methylpropan-2-ol] |
